What was measured:
[1] = tested on: E. coli with a resistance to ampicillin due to a plasmid pUC19; test: Mass spectrometric (MALDI) protein profile after incubation with antibiotic in liquid nutrient medium, resistant strain; assay type: cell-based, Escherichia coli; conditions: ampicillin in a liquid nutrient medium allowed to act for two hours, FIG. 2 bottom
Procedure: The mass spectra contain predominantly protein signals of the same mass, with the usual lack of reproducibility of the intensities. They are identified as being identical by suitable computer programs.
(§1) The non-resistant type of E. coli (top) has been destroyed; all protein signals of the mass spectra from FIG. 1 have disappeared.
(§2) The illustrative method starts in step 300 and comprises the following steps: • (a) In step 302, a quantity of microbes under investigation is added to a nutrient medium which also contains a quantity of the antibiotic, • (b) Next, in step 304, the microbes are incubated at a predetermined temperature for a predetermined length of time, preferably not longer than a few hours, • (c) In step 306, the microbes are then removed from the nutrient medium by a suitable means, such as centrifuging, • (d) The microbes are then applied, in step 308, together with a matrix solution to a mass spectrometric sample support and the matrix solution is dried on the sample support to form a sample, • (e) In step 310, a mass spectrum of this sample is acquired, and • (f) Then, in step 312, the acquired mass spectrum is compared with reference mass spectra of these microbes. The process then finishes in step 314.
Infectious microbes are incubated for about two hours at temperatures of between 35° C. and 40° C. in the presence of the antibiotics. […]

[2] = tested on: non-resistant type of E. coli; test: Mass spectrometric (MALDI) protein profile after incubation with antibiotic in liquid nutrient medium, non-resistant strain; assay type: cell-based, Escherichia coli; conditions: ampicillin in a liquid nutrient medium allowed to act for two hours, FIG. 2 top
Procedure: as §1, §2
Infectious microbes are incubated for about two hours at temperatures of between 35° C. and 40° C. in the presence of the antibiotics. This temperature is the optimum one for most infectious microbes because they are generally adapted to a life in mammals. […]

Which results are given for `CC1(C)S[C@@H]2[C@H](NC(=O)[C@H](N)c3ccccc3)C(=O)N2[C@H]1C(=O)O` [ampicillin]?
effect on microbes / protein profile of the mass spectrum [1]: protein profile which is sufficiently similar to the two mass spectra in FIG. 1; effect on microbes / protein signals of the mass spectrum [2]: destroyed

Source: US9897613B2, “Mass spectrometric measurement of microbial resistances” (Bruker Daltonik GmbH, priority 2007, dated 2018)
